Measurements published in patent US4977276A, “Heteroarotinoids as anticancer agents” (The Board of Regents for the Oklahoma Agricultural and …, priority 1989, dated 1990).
Values after ≈ are worked out from the molar mass of the structure shown. “Also recorded” adds a separate entry of the source. Where two headings read alike, the source gives them in different places. One block for each molecule: values may come before it.

What was measured:
[1] = tested on: ornithine decarboxylase (ODC); assay: suppression of TPA induced ornithine decarboxylase (ODC) activity in mouse skin; assay type: in vivo; conditions: for % of Inhibition as Compared to Control: second table (60 min)
Procedure: In the ODC assay, either 13-cis-retinoic acid or trans-retinoic acid was employed. The following Table summarizes the result of the ODC assays.
Epidermus was separated, homogenized, and centrifuged at 30,000× g. Soluble epidermal ODC activity was assayed. The retinoids were evaluated in three independent experiments (3 groups of mice with 3 mice per group) and the results from the experiments were normalized (% inhibition) for comparison. […] Which standard is used appears to be relatively unimportant for determining activity in the assay, but the data presented in the Table identifies the standard for sake of clarity and accuracy of presentation. Thus, the presence of the heteroatom in these arotinoids has not eliminated biological activity. […] Consequently, the nature of the terminus group is also important.

HL-60 cells = assay: induction of differentiation of human HL-60 promyelocytic cells (NBT reduction); assay type: cell-based; conditions: HL-60, 96 h, read-out: concentration of retinoid effective in achieving a half-maximal response (ED50)
Procedure: These mature cells, unlike the uninduced HL-60, produced superoxide anion when simulated with an appropriate agent, such as TPA. The ability of the individual cells to produce superoxide can be measured by incubating cells with the water-soluble yellow dye, nitroblue tetrazolium (NBT). NBT is reduced to a water-insoluble blue-black formazan by superoxide. This formazan precipitate is associated with those cells that produce superoxide. Thus, the percentage of cells in a population that produce superoxide (NBT-positive cells) can be enumerated under a light microscope.
After incubation for 4 days at 37° C. in a humidified atmosphere of 5% CO2 and air, the capacity of the cells to reduce NBT was determined. […] This cell suspension was mixed with an equal volume of phosphate buffered saline containing 1 mg of NBT/mL and […]. The reaction mixture was incubated at 37° C. for 25 minutes, and the reaction was terminated by cooling in an ice water bath. Cytospin slides were prepared from a portion of this reaction mixture and stained with Wright-Giemsa. A minimum of 200 cells were counted under light microscopy to determine the percentage of cells with cell-associated formazan.

RPMI-7951 (melanoma) = assay: Human Tumor Cell Line Bioassay (HTCL), RPMI-7951; assay type: cell-based; parameters: key to ED50 Values: NDT: No detectable toxicity; conditions: RPMI-7951, MTT, O.D. 50% of control; for IC50: Homo sapiens, read-out: ED50 Values
Procedure: (§1) The Human Tumor Cell Line Bioassay (HTCL) has been conducted in a manner similar to the procedure described by Alley and co-workers (Cancer Research 1988, 48, 589-601). A panel of 4 tumor cell lines were grown in microliter plates and various concentrations of the test compounds were added to the wells. After 4 days, the number of viable cells were measured in terms of production of formazin after incubation with MTT [3-(4,5-dimethylthiazol-2-yl)-2,5-diphenyltetrazolium bromide]. Formazin production is directly proportional to the viable cell number/well and can be measured spectrophotometrically after solubilization.
The cell lines used in the HTCL assay were A-549 (lung adenocarcinoma), HT-29 (colon adenocarcinoma), MCF-7 (breast adenocarcinoma), and RPMI-7951 (melanoma). With the exception of HT-29, these cells have been adopted to grow in B10 medium which consists of Eagle's Minimum Essential Medium supplemented with 1.5× the essential amino acids, 2× the non-essential amino acids, 1.5× vitamins, 1× L-glutamine, 10% calf bovine serum (CBS), and 1× antibiotic solution (PSF) consisting of 50 U/mL of penicillin, 50 ug/mL of streptomycin sulfate, and 50 ug/mL of amphotericin B. HT-29 cells were grown in McCoy's 5A medium supplemented with 10% CBS and 1× PSF. Stock cultures of cells were routinely grown in 25 cm^2 flasks (T-25) and passaged on a weekly basis. Cells were passaged by washing twice with phosphate buffered saline (PBS) and once with a 0.005% trypsin--0.01% EDTA solution. Trypsin-EDTA solution was added and the flask was allowed to incubate for 2-5 minutes until the cells were detached. After detaching from the flask, the cells were resuspended in their appropriate medium, counted on a Coulter Counter (ZBI), and an aliquot was transferred to new T-25 flasks. The remaining cells were used to set up the assay in 96 well microliter plates. Either 3,000 (HT-29, MCF-7) or 2,000 (A-549, RPMI-7951) cells were added to the wells in a 96-well microliter plate in 0.2 mL of medium (Day 1). On Day 2, the compounds were resuspended at 1 or 2 mg/mL in acetone, and the compounds were serially diluted 10 or 5 fold in PBS and 20 uL of each dilution starting at 100 or 200 ug/mL was added to 4 wells of the microliter plate. Doxyrubicin was used as a positive control compound. On Day 7, 20 uL of MTT (2 mg/mL) was added to each of the wells. The plates were then incubated at 37° C. for 4 hours. After incubation, the medium and MTT were removed by aspiration and 100 uL of DMSO was added to solubilize the formazin product. The plates were read on a Dynatech 700 plate reader at 540 nm, and the data were collected on an IBM PC. The data were graphed and the ED50 was determined from the graph.

[2] = tested on: HT-29 (colon adenocarcinoma); assay: Human Tumor Cell Line Bioassay (HTCL), HT-29; assay type: cell-based; conditions: HT-29, MTT, O.D. 50% of control
Procedure: as §1
The cell lines used in the HTCL assay were A-549 (lung adenocarcinoma), HT-29 (colon adenocarcinoma), MCF-7 (breast adenocarcinoma), and RPMI-7951 (melanoma). […] After detaching from the flask, the cells were resuspended in their appropriate medium, counted on a Coulter Counter (ZBI), and an aliquot was transferred to new T-25 flasks. […] The plates were read on a Dynatech 700 plate reader at 540 nm, and the data were collected on an IBM PC. The data were graphed and the ED50 was determined from the graph.

[3] = retinoid dose 17 nmol + TPA, first table, acetone + TPA control 0.90
[4] = retinoid dose 34 nmol + TPA, second table, acetone + TPA control 1.67
[5] = with trans-retinoic acid as the standard
[6] = in comparison with 13-cis-retinoic acid as the standard, or among the tested compounds
[7] = incubation 4 days at 37° C., NBT-positive cells

SMILES: CC1=C(/C=C/C(C)=C/C=C/C(C)=C\C(=O)O)C(C)(C)CCC1 [13-cis-retinoic acid, reference compound]
ODC Activity [1, 3]: 0.1 ± 0.01 nmol CO2 /30 min/mg protein
% of Inhibition as Compared to Control ([1]; retinoid dose 17 nmol + TPA): 92%
ODC Activity ([1]; retinoid dose 17 nmol + TPA, second table, acetone + TPA control 1.67): 0.14 ± 0.04 nmol CO2 /60 min/mg protein

activity in the ODC assay in words [1, 5]: less active compared to the same control
SMILES: CC(/C=C/C=C(\C)c1ccc2c(c1)C(C)(C)CCS2)=C\C(=O)OCCN1C(=O)c2ccccc2C1=O [(40), (2-Phthalimide-ethyl) 7-[4,4-Dimethylthiochroman-6-yl]-3-7-dimethyl-2,4,6-heptatrienoate]
% of Inhibition as Compared to Control ([1]; retinoid dose 34 nmol + TPA): 42%
ODC Activity [1, 4]: 0.97 ± 0.13 nmol CO2 /60 min/mg protein

SMILES: CCOC(=O)/C=C(C)/C=C/C=C(\C)c1ccc2c(c1)C(C)(C)CCS2 [(39), Ethyl 7-[4,4-Dimethylthiochroman-6-yl]-3,7-dimethyl-2,4,6-heptatrienoate]
activity in the ODC assay in words [1, 6]: strongest activity; also recorded: more active
ODC Activity [1, 3]: 0.0 ± 0.0 nmol CO2 /30 min/mg protein

SMILES: CC1=C(/C=C/C(C)=C/C=C/C(C)=C/C(=O)O)C(C)(C)CCC1 [trans-retinoic acid]
EC50 (HL-60 cells): 41 nM
IC50 (RPMI-7951 (melanoma); 96 h): 30 µg/mL (≈ 99.9 µM)
ED50 Values (RPMI-7951 (melanoma)): NDT

SMILES: COc1cccc2c1C(=O)c1c(O)c3c(c(O)c1C2=O)C[C@@](O)(C(=O)CO)C[C@@H]3O[C@H]1C[C@H](N)[C@H](O)[C@H](C)O1 [Doxyrubicin]
ED50 Values ([2]; 5760 min): 0.6 µg/mL (≈ 1.1 µM)
IC50 ([2]; Homo sapiens, HT-29, 96 h, read-out: ED50 Values): 0.3 µg/mL (≈ 0.552 µM)
IC50 (RPMI-7951 (melanoma); RPMI-7951, 96 h): 0.2 µg/mL (≈ 0.368 µM)
ED50 Values (RPMI-7951 (melanoma); 5760 min): 0.1 µg/mL (≈ 0.184 µM)

EC50 (HL-60 cells; [7]): 200 nM
activity in the ODC assay in words [1, 5]: slightly less active than the standard
SMILES: CC(/C=C/C=C(\C)c1ccc2c(c1)C(C)(C)CCO2)=C\C(=O)O [(47), 7-[4,4-Dimethylchroman-6-yl]-3,7-dimethyl-2,4,6-heptatrienoic acid]
% of Inhibition as Compared to Control ([1]; retinoid dose 34 nmol + TPA): 74%
ODC Activity [1, 4]: 1.4 ± 0.2 nmol CO2 /60 min/mg protein

EC50 (HL-60 cells; [7]): 72 nM
SMILES: CC(/C=C/C=C(\C)c1ccc2c(c1)C(C)(C)CCS2)=C\C(=O)O [(38), 7-[4.4-Dimethylthiochroman-6-yl]-3,7-dimethyl-2,4,6-heptatrienoic acid]
activity in the ODC assay in words [1, 6]: essentially equivalent in activity to the standard
ODC Activity [1, 3]: 0.1 ± 0.01 nmol CO2 /30 min/mg protein
